Laboratory results: US7145010B2, “Tert-alkylphenoxy-substituted polycyclic compounds” (BASF Aktiengesellschaft, priority 2001, dated 2006)
In brackets after ≈: the same amount, converted by molar mass.

Columns and labels:
[1] = Solubility in extremely nonpolar to polar solvents
[2] = Homogeneous incorporation into aqueous polymer dispersions (Example 25 of WO-A-99/40123 repeated); type: physicochemical
Source text: Example 25 of WO-A-99/40123 was repeated to prepare aqueous polymer dispersions containing 15% by weight of the fluorescent colorant of Example 2 or […] of the near infrared absorber of Example 6 in homogeneous dispersion. The corresponding phenoxy-substituted derivatives, by contrast, were only incorporable with homogeneous results up to a concentration of respectively 7 and 1% by weight.

CC(C)c1cccc(C(C)C)c1N1C(=O)c2cc(Oc3ccc(C(C)(C)CC(C)(C)C)cc3)c3c4cccc5c(Oc6ccc(C(C)(C)CC(C)(C)C)cc6)ccc(c6c(Oc7ccc(C(C)(C)CC(C)(C)C)cc7)cc(c2c36)C1=O)c54 [Example 1]
Solubility in Isopropanol (50° C.) [1]: 56 mg/mL (≈ 51.2 mM)
Solubility in Pentane (25° C.) [1]: 53 mg/mL (≈ 48.4 mM)
Solubility in Toluene (25° C.) [1]: >250 mg/mL

CCCCCCCCCCCCN1C(=O)c2ccc3c4c(Oc5ccc(C(C)(C)CC(C)(C)C)cc5)cc5c6c(ccc(c7c(Oc8ccc(C(C)(C)CC(C)(C)C)cc8)cc(c2c37)C1=O)c64)C(=O)N(CCCCCCCCCCCC)C5=O [Example 5]
Solubility in Isopropanol (50° C.) [1]: 47 mg/mL (≈ 41.4 mM)
Solubility in Pentane (25° C.) [1]: 24 mg/mL (≈ 21.1 mM)
Solubility in Toluene (25° C.) [1]: 155 mg/mL (≈ 136 mM)

CC(C)c1cccc(C(C)C)c1N1C(=O)c2ccc3c4c(Oc5ccc(C(C)(C)CC(C)(C)C)cc5)cc5c6c(ccc(c7c(Oc8ccc(C(C)(C)CC(C)(C)C)cc8)cc(c2c37)C1=O)c64)C(=O)N(c1c(C(C)C)cccc1C(C)C)C5=O [Example 4]
Solubility in Isopropanol (50° C.) [1]: 59 mg/mL (≈ 52.7 mM)
Solubility in Pentane (25° C.) [1]: 55 mg/mL (≈ 49.1 mM)
Solubility in Toluene (25° C.) [1]: >250 mg/mL

CC(C)c1cccc(C(C)C)c1N1C(=O)c2cc(Oc3ccc(C(C)(C)CC4CCCCC4)cc3)c3c4c(Oc5ccc(C(C)(C)CC6CCCCC6)cc5)cc5c6c(cc(Oc7ccc(C(C)(C)CC8CCCCC8)cc7)c(c7c(Oc8ccc(C(C)(C)CC9CCCCC9)cc8)cc(c2c37)C1=O)c64)C(=O)N(c1c(C(C)C)cccc1C(C)C)C5=O [Example 3]
Solubility in Isopropanol (50° C.) [1]: 87 mg/mL (≈ 53.3 mM)
Solubility in Pentane (25° C.) [1]: 65 mg/mL (≈ 39.8 mM)
Solubility in Toluene (25° C.) [1]: >350 mg/mL

CC(C)c1cccc(C(C)C)c1N1C(=O)c2cc(Oc3ccc(C(C)(C)CC(C)(C)C)cc3)c3c4c(Oc5ccc(C(C)(C)CC(C)(C)C)cc5)cc5c6c(cc(Oc7ccc(C(C)(C)CC(C)(C)C)cc7)c(c7c(Oc8ccc(C(C)(C)CC(C)(C)C)cc8)cc(c2c37)C1=O)c64)C(=O)N(c1c(C(C)C)cccc1C(C)C)C5=O [Example 2]
Concentration contained in homogeneous dispersion in aqueous polymer dispersion [2]: 15 % by weight
Solubility in Isopropanol (50° C.) [1]: 92 mg/mL (≈ 60.2 mM)
Solubility in Pentane (25° C.) [1]: 81 mg/mL (≈ 53 mM)
Solubility in Toluene (25° C.) [1]: >400 mg/mL

1:1 mixture of N,N′-bis(2,6-diisopropylphenyl)-1,6,8,11,16,18-hexa(p-tert-octylphenoxy)-quaterrylene-3,4:13,14-tetracarboxylic diimide and N,N′-bis(2,6-diisopropyl-phenyl)-1,6,8,11,16,19-hexa(p-tert-octylphenoxy)quaterrylene-3,4:13,14-tetracarboxylic diimide [Example 6]
Solubility in Isopropanol (50° C.) [1]: 49 mg/mL
Solubility in Pentane (25° C.) [1]: 55 mg/mL
Solubility in Toluene (25° C.) [1]: >500 mg/mL
